“Also recorded” adds a separate entry of the source.
Experiments:
Format in all cases: in vivo
[1] = system: MenC polysaccharide; experiment: MenC-specific Ig titre in mice immunised with MenC, MenC+CRM or MenC-CRM conjugate with or without α-GalCer; conditions: 30 μg MenC-CRM conjugate and α-GalCer, compared with MenC-CRM conjugate and PBS; three immunisations
Experimental: C) Immunisation schedule for mice with different polysaccharides, plain, conjugated or admixed with protein carriers, with and without α-GalCer. Ten groups of wild-type C57BL/6 mice were primed on day 0 with: 1) PBS, 2) 0.1 μg with α-GalCer, 3) 10 μg MenC polysaccharide, 4) 20 μg CRM protein carrier, 5) 30 μg of a MenC-CRM conjugate, 6) 10 μg MenC polysaccharide admixed with CRM protein carrier, or the compositions in 3)-6) and α-GalCer (groups 7-10). Mice were boosted two and four weeks after they were primed with the same composition with which they were primed. Mice were bled 2, 4 and 6 weeks after initial priming (2wp1, 2wp2 and 2wp3) and the levels of antibodies against both the MenC polysaccharide and the CRM carrier were measured.
FIG. 5: α-GalCer enhances the specific antibody response against both the MenC polysaccharide and the CRM protein carrier in a MenC-CRM conjugate. Wild-type mice were primed with 10 μg MenC polysaccharide, 20 μg CRM protein carrier, 10 μg MenC polysaccharide admixed with CRM protein carrier (MenC+CRM), or 30 μg of a MenC-CRM conjugate, or the same compositions with α-GalCer. […]
FIG. 7: Antibody response is enhanced in mice immunised with α-GalCer and MenC-CRM conjugate. […] The MenC-specific titre was measured one week post the second immunisation (1wp2) and one week post third immunisation (1wp3).

[2] = system: Hib; experiment: Hib-specific Ig titre in mice immunised with Hib-HSA conjugate mixed with PBS, α-GalCer or MF59; conditions: 15 μg Hib-HSA conjugate mixed with α-GalCer, compared with Hib-HSA conjugate and PBS; three immunisations; 1wp2 and 1wp3
Experimental: FIG. 11: Antibody response is enhanced in mice immunised with α-GalCer and Hib-HSA conjugate. […] Each group of mice was immunised three times. The Hib-specific titre was measured 1 week post the second immunisation (1wp2) and 1 week post the third immunisation (1wp3).

[3] = system: S. pneumoniae polysaccharides; experiment: S. pneumoniae-specific antibody titres by ELISA in mice immunised with Streptopur with or without α-GalCer
[4] = system: MenA polysaccharide; experiment: MenA-specific antibody titres in mice immunised with MenA polysaccharide or MenA-CRM conjugate with or without α-GalCer
Experimental: FIG. 6: α-GalCer enhances the immune response to a MenA-CRM conjugate. Mice were immunised with 10 μg MenA polysaccharide or MenA-CRM conjugate with or without α-GalCer. Antibodies titres against the MenA polysaccharide were measured 4, 8 and 12 days post priming. α-GalCer enhanced the immune response to the MenA polysaccharide.

[5] = system: S. pneumoniae-specific B cells; experiment: Number of S. pneumoniae-specific B cells in spleens by Elispot; conditions: mice primed with 0.1 or 1.0 μg α-GalCer and boosted with 11.5 μg Streptopur 12 weeks later, compared with PBS prime and Streptopur boost; Elispot at 18-22 weeks

In the case of `CCCCCCCCCCCCCCCCCCCCCCCCCC(=O)N[C@@H](CO[C@H]1O[C@H](CO)[C@H](O)[C@H](O)[C@H]1O)[C@H](O)[C@H](O)CCCCCCCCCCCCCC` [α-GalCer, α-galactosylceramide], the “MenC-specific Ig titres” value [1] was “enhanced; also recorded: significant increase”, the “Hib-specific Ig titres” value [2] was “enhanced; also recorded: considerably higher” and the “S. pneumoniae specific IgM antibodies (geomean) by age of mice” value ([3]; 8 days after priming mice of different ages with 3.5 μg Streptopur and 0.1 μg α-GalCer, compared with Streptopur alone) was “suppresses; also recorded: suppression”. The “S. pneumoniae-specific antibody titres in NKT-deficient mice” value ([3]; JA18−/−, CD1d−/− and CD1d−/+ mice primed with 3.5 μg Streptopur and 0.1 μg α-GalCer, compared with Streptopur alone, 4, 8, 12 days after priming) was “no significant difference”, the “S. pneumoniae-specific antibody titers after boost” value ([3]; mice primed with Streptopur and 0.1 μg α-GalCer and boosted with Streptopur, compared with primed and boosted with Streptopur alone, 8 days after boosting) was “lower” and the “S. pneumoniae-specific antibody titres (IgM, geomean)” value ([3]; wild-type C57BL/6 mice primed i.m. with Streptopur and 0.1 μg α-GalCer, compared with Streptopur alone, 4, 8, 12 days after priming) was “lower; also recorded: reduced”. For the same compound, the “MenA-specific Ig titres” value ([4]; MenA-CRM conjugate and α-GalCer, compared with conjugate without α-GalCer, 4, 8, 12 days post priming) was “enhances; also recorded: increase”, the “Inhibitory action on the response to unconjugated MenA saccharides” value ([4]; unconjugated MenA polysaccharide with α-GalCer) was “not observed” and the “Number of S. pneumoniae-specific B cells per 10^6 splenocytes” value [5] was “lower numbers”.

Source: US8790654B2, “Glycosylceramide adjuvant for saccharide antigens” (Novartis AG, priority 2004, dated 2014)
